Laboratory results taken from US5466809A (Toronto Research Chemicals, Inc., priority 1994, dated 1995).
Values after ≈ are worked out from the molar mass of the structure shown. Values joined by “and” are separate entries in the source; they are usually repeats but may differ in a detail not shown here. Equal entries are not always repeated. Where two headings read alike, the source gives them in different places.

Tests used:
bone marrow cells [1] = assay: In vivo bone marrow CFU formation and bone marrow cellularity, dose dependent effect; design: species or system C57BL/6 mice; conditions: for optimal dose / Effect on bone marrow cellularity and CFU formation compared with swainsonine (summary) / Effect on bone marrow cellularity and CFU formation (summary): summary of experiments; for Effect on bone marrow cellularity and CFU formation compared with swainsonine (summary): for 3 and 23 versus 10 μg swainsonine; for Mean of CFU Formation / Mean of Cellularity: 4 days
Source text: (§1) Assay for Bone Marrow Cell Proliferation Induced by Swansonine Analogues. Pathogen-free C57BL/6 mice at 8-14 weeks of age were quarantined for one week prior to their use in the experiments described below. Mice were inoculated intraperitoneally twice daily with a designated dose of swainsonine or an analogue of swainsonine for a period of four days. Eighteen hours following the last injection, the mice were sacrificed, bone marrow cells were obtained using standard technology (S. C. White et al., J. Natl. Cancer Inst. 83 1125, 1991). Cellularity of the bone marrow cells so obtained was determined by directly counting the cells after they were flushed from the femurs and tibia of the mice. The cells were processed according to the procedure described in the GIBCO-BRL Mouse Bone Stem Cell Proliferation Kit, and the number of colony forming units (CFU) was assessed using the procedures also described in the kit. For kinetic experiments, mice were administered 10 ug of the analogue (this was the optimum dose in all cases) twice daily for the designated number of days. The experiments were designed so that all regimens terminated on the same day. Eighteen hours after the last injection, the mice were sacrificed and bone marrow cells were obtained and processed as described above.

[2] = target: T1, Jack Bean alpha-mannosidase (Canavalia ensiformis, UniProt C0HJB3); assay: Jack Bean alpha-mannosidase assay; format: biochemical; conditions: pH 6.0, 37° C., 30 minutes, p-nitrophenyl-alpha-D-mannopyranoside substrate; read-out: D50 Values (Inhibition), J.B. mannosidase (converted)
T1 sequence (C0HJB3 1-981): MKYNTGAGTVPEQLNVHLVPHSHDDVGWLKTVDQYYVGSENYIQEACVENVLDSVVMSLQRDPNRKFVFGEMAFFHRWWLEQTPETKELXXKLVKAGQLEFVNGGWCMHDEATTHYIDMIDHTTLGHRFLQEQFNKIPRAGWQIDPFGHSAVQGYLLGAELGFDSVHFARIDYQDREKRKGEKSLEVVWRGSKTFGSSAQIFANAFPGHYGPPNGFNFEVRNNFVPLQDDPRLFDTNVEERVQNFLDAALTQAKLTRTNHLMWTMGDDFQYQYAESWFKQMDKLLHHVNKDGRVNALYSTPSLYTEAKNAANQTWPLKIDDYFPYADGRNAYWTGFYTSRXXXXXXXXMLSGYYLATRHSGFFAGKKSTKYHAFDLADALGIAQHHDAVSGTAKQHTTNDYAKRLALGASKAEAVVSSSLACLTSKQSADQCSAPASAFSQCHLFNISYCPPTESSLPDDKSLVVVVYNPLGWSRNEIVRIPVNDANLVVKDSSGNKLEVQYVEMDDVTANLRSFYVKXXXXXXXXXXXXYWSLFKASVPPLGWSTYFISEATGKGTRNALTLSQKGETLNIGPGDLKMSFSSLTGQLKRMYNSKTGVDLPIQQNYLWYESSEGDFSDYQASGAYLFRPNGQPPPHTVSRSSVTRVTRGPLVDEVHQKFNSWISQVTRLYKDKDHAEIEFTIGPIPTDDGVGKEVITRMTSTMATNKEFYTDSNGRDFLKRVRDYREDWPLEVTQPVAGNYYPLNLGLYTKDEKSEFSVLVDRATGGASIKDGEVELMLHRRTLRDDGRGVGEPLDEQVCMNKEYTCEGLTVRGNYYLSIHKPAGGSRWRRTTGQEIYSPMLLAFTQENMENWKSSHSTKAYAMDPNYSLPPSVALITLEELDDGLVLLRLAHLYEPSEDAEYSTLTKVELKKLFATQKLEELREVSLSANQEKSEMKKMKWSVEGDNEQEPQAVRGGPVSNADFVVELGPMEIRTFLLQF
Procedure: Jack Bean alpha-Mannosidase Assay. […] A volume (37.5 ul) of 0.05M sodium acetate (pH 6.0) was added to each well, followed by 37.5 ul of 0.01M p-nitrophenyl-alpha-D-mannopyanoside, and then 10 ul of a 1:400 dilution of Jack Bean alpha-mannosidase. After thoroughly shaking to mix, the mixture was incubated at 37° C. for 30 minutes. The reaction was stopped by the addition of 150 ul of 0.5M sodium carbonate (pH 10.0). The absorbance at 405 nm of the solution in the wells was determined in an ELISA plate reader.

[3] = tested on: N-linked oligosaccharide processing; assay: L-PHA lectin sensitivity assay for inhibition of N-linked oligosaccharide processing; format: cell-based
Procedure: This test also indicates whether the compounds enter tumor cells and measures the degree of toxicity of the compounds for cells. The test is described in J. W. Dennis, Cancer Research 46:5131, 1986.
Essentially, 2×10^4 cells are placed in individual wells of a 96-well microtest plate, wherein the wells contain serial dilutions of the compounds to be tested. […] […] The cells are then harvested and the amount of radioactivity incorporated into the host cell DNA is measured in a liquid scintillation counter. The amount of radioactivity present in cells in wells in the absence of L-PHA reflects the toxicity of the test compound and the amount of radioactivity present in the presence of L-PHA reflects the level of inhibition of oligosaccharide processing induced by the test compound.

bone marrow cells [4] = assay: In vivo bone marrow CFU formation and cellularity, time course (kinetic experiments); design: species or system C57BL/6 mice; conditions: 10 μg twice daily i.p.
Source text: as §1

[5] = L-PHA assay, 3H-thymidine incorporation, read-out: D50 Values (Inhibition), L-PHA assay
[6] = Expt. 1, 10 μg twice daily i.p.
[7] = Expt. 1, 20 μg twice daily i.p.
[8] = Expt. 1, 40 μg twice daily i.p.
[9] = Expt. 2, 10 μg twice daily i.p.

Compound	Effect on bone marrow cellularity and CFU formation compared with swainsonine (summary) (bone marrow cells [1])	IC50 [2]	IC50 [3, 5]	Mean of CFU Formation (bone marrow cells [1]; Expt. 1, 5 μg twice daily i.p.)	Mean of Cellularity (bone marrow cells [1]; Expt. 1, 5 μg twice daily i.p.)	Mean of CFU Formation (bone marrow cells [1]; [6])	Mean of Cellularity (bone marrow cells [1]; [6])	Mean of CFU Formation (bone marrow cells [1]; [7])	Mean of Cellularity (bone marrow cells [1]; [7])	Effect on bone marrow cellularity and CFU formation (summary) (bone marrow cells [1])	other results
CCCC(=O)O[C@@H]1CN2CCC[C@@H](O)[C@@H]2[C@@H]1O [Compound 3, 1S-8a-β-2-alpha-butanoyloxyoctahydroindolizine-1-alpha-8-β-diol]	comparable to	144 µM	0.066 µg/mL (≈ 0.271 µM)	–	–	–	–	–	–	–	optimal dose (bone marrow cells [1]): 10 µg; amount of radioactivity incorporated by cells ([3]; 3H-thymidine incorporation, compared with swainsonine): comparable to that of swainsonine
O=C(O[C@@H]1CN2CCC[C@@H](O)[C@@H]2[C@@H]1O)c1ccccc1 [Compound 5, 1S-8a-β-2-alpha-benzoyloxyoctahydroindolizine-1-alpha-8-β-diol]	–	252 µM	0.5 µg/mL (≈ 1.8 µM)	200 CFU	2.91 × 10^7	324 CFU	5.76 × 10^7	293 CFU	3.07 × 10^7	Stimulates CFU & cellularity	Mean of CFU Formation (bone marrow cells [1]; [8]): 287 CFU; Mean of Cellularity (bone marrow cells [1]; [8]): 3.07 × 10^7; Mean of Cellularity (bone marrow cells [1]; Expt. 2, 5 μg twice daily i.p.): 3.33 × 10^7; Mean of Cellularity (bone marrow cells [1]; [9]): 4.76 × 10^7; Mean of Cellularity (bone marrow cells [1]; Expt. 2, 20 μg twice daily i.p.): 3.38 × 10^7; Mean of CFU Formation (bone marrow cells [4]; 1 day): 250 CFU; Mean of Cellularity (bone marrow cells [4]; 1 day): 3.00 × 10^7; Mean of CFU Formation (bone marrow cells [4]; 2 days): 436 CFU; Mean of Cellularity (bone marrow cells [4]; 2 days): 4.18 × 10^7; Mean of CFU Formation (bone marrow cells [4]; 3 days): 568 CFU; Mean of Cellularity (bone marrow cells [4]; 3 days): 5.59 × 10^7; Mean of CFU Formation (bone marrow cells [4]; 4 days): 623 CFU; Mean of Cellularity (bone marrow cells [4]; 4 days): 7.42 × 10^7; Mean of CFU Formation (bone marrow cells [4]; 5 days): 621 CFU; Mean of Cellularity (bone marrow cells [4]; 5 days): 6.88 × 10^7; Mean of CFU Formation (bone marrow cells [4]; 6 days): 518 CFU; Mean of Cellularity (bone marrow cells [4]; 6 days): 5.24 × 10^7
CCCCCCCC(=O)O[C@@H]1CN2CCC[C@@H](O)[C@@H]2[C@@H]1O [Compound 6, 1S-8a-β-2-alpha-octanoyloxyoctahydroindolizine-1-alpha-8-β-diol]	not approximating swainsonine	117 µM	0.066 µg/mL (≈ 0.22 µM)	200 CFU	2.57 × 10^7	437 CFU	3.83 × 10^7	295 CFU	2.73 × 10^7	Stimulates CFU and cellularity	Mean of CFU Formation (bone marrow cells [4]; 1 day): 250 CFU; Mean of Cellularity (bone marrow cells [4]; 1 day): 3.56 × 10^7; Mean of CFU Formation (bone marrow cells [4]; 2 days): 432 CFU; Mean of Cellularity (bone marrow cells [4]; 2 days): 4.63 × 10^7; Mean of CFU Formation (bone marrow cells [4]; 3 days): 550 CFU; Mean of Cellularity (bone marrow cells [4]; 3 days): 5.88 × 10^7; Mean of CFU Formation (bone marrow cells [4]; 4 days): 618 CFU; Mean of Cellularity (bone marrow cells [4]; 4 days): 7.63 × 10^7; Mean of CFU Formation (bone marrow cells [4]; 5 days): 614 CFU; Mean of Cellularity (bone marrow cells [4]; 5 days): 6.25 × 10^7; Mean of CFU Formation (bone marrow cells [4]; 6 days): 488 CFU; Mean of Cellularity (bone marrow cells [4]; 6 days): 5.38 × 10^7
CCOC1CC(=O)N2C[C@@H](O)[C@@H](O)[C@H]2[C@@H]1O (stereo partly drawn) [Compound 23, 7-ethoxy-(1S,2R,8R,8aR)-1,2,8-trihydroxy-octahydro-5-oxyindolizine]	comparable to	43.2 µM	> 1 µg/mL	–	–	–	–	–	–	–	optimal dose (bone marrow cells [1]): 10 µg
O[C@@H]1[C@H](O)[C@H](O)CN2C[C@@H](O)[C@@H](O)[C@@H]12 [Compound 36, 1S-1-alpha-2-alpha-6β,7β-8β-pentahydroxy-8a-β-octahydroindolizine]	–	–	–	291 CFU	2.28 × 10^7	545 CFU	5.27 × 10^7	327 CFU	2.59 × 10^7	–	–
Cc1ccc(C(=O)O[C@@H]2CN3CCC[C@@H](O)[C@@H]3[C@@H]2O)cc1 [Compound 41, 1S-8a-β-2-alpha-p-toluoyloxyoctahydroindolizine-1-alpha-8-β-diol]	–	343 µM	1 µg/mL (≈ 3.43 µM)	195 CFU	2.22 × 10^7	359 CFU	2.99 × 10^7	214 CFU	2.14 × 10^7	Stimulates CFU & cellularity	–
O=C(O[C@@H]1CN2CCC[C@@H](O)[C@@H]2[C@@H]1O)c1ccc([N+](=O)[O-])cc1 [Compound 42, 1S-8a-β-2-alpha-p-nitorbenzoyloxyoctahydroindolizine-1-alpha-8-β-diol]	–	109 µM	0.066 µg/mL (≈ 0.205 µM)	213 CFU	2.68 × 10^7	373 CFU	3.21 × 10^7	242 CFU	2.63 × 10^7	Stimulates CFU & cellularity	–
O=C1N[C@@H]2[C@@H](O)[C@@H](O)[C@H](O)[C@@H](CO)N2C1=O [Kefunensine, reference compound]	–	151 µM	1 µg/mL (≈ 4.31 µM)	–	–	–	–	–	–	–	–
O[C@H]1[C@H]2[C@H](O)CCCN2C[C@H]1O [swainsonine, 1S-8a-β-octahydroindolizine-1-alpha-2-alpha-8-β-triol, reference compound]	–	–	0.033 µg/mL (≈ 0.191 µM)	–	–	550 CFU and 446 CFU	5.86 × 10^7 and 3.73 × 10^7	–	–	–	Mean of Cellularity (bone marrow cells [1]; [9]): 5.76 × 10^7; IC50 ([3]; 30 ug/ml L-PHA, read-out: I50): ~0.02 µg/mL and ~100 nM
